{
  "source": "patent US8735178B2",
  "about": "“Withanolides, probes and binding targets and methods of use thereof” (University of Kentucky Research Foundation, priority 2006, dated 2014)",
  "key": {"[1]": {"target": "soluble hamster vimentin (Mesocricetus auratus, UniProt P02544)", "sequence (P02544 whole entry)": "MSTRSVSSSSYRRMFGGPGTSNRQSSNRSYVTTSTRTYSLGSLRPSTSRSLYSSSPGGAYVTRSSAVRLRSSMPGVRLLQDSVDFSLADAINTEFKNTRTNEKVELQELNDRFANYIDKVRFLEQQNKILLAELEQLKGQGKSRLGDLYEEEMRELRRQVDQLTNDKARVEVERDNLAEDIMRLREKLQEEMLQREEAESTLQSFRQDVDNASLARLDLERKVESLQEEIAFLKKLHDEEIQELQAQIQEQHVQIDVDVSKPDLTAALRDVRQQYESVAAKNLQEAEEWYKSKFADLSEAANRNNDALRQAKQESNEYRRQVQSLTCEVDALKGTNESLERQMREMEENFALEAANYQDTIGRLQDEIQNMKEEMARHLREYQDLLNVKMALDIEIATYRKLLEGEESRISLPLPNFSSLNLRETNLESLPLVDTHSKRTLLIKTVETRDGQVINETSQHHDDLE", "assay": "In vitro ligand binding assay (WFA-B labelling, streptavidin-HRP blot)", "details": "competitor 1 hour, then 0.3 or 1 μM WFA-B 1 hour", "from_the_text": "The proteins were fractionated by SDS-PAGE, blotted and biotinylated adduct was detected by streptaviding-HRP with chemiluminescence."}, "[2]": {"target": "T1, tetrameric soluble hamster vimentin (Mesocricetus auratus, UniProt P02544)", "T1 construct": "purchased Vimentin Filament Biochemistry Kit, Denver, Colo; Cytoskeleton is named", "T1 sequence (P02544 2-465 limits assumed)": "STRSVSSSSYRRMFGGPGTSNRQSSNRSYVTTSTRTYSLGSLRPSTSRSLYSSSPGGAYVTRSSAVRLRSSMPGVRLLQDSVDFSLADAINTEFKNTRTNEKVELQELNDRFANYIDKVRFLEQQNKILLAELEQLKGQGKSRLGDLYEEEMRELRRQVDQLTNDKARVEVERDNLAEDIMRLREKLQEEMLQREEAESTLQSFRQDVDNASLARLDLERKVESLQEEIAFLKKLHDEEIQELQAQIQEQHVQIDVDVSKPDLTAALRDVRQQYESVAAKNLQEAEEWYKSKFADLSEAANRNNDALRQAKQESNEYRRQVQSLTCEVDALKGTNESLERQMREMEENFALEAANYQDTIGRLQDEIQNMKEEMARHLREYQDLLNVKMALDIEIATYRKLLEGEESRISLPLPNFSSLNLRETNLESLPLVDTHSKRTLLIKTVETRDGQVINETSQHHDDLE", "assay": "In vitro vimentin filament polymerization (transmission electron microscopy)", "type": "biochemical", "details": "25 μM, 170 mM NaCl, 1 hour at 37° C.", "experimental": "FIG. 3a depicts tetrameric soluble hamster vimentin polymerized in the presence of 170 mM NaCl by incubation at 37° C. for 1 hour. The protein was fixed with 0.5% glutaraldehyde, stained with uranyl acetate and observed by transmission electron microscopy.\nTetrameric hamster vimentin was subjected to in vitro filament formation assays using vendor-supplied reagents and instructions (Vimentin Filament Biochemistry Kit, Denver, Colo.). Vimentin (0.5 mg/ml) was mixed with WFA (5 μM or 25 μM), DMSO or 12D-WS (25 μM) in filament polymerization buffer (170 mM NaCl final concentration) and incubated for 1 hour at 37° C. Protein was immediately fixed in 0.5% glutarldehyde and stained with uranyl acetate and applied to copper grids for EM staining (University of Kentucky Core Microscopy and Imaging Facilities). Over 100 grids for each treatment were viewed at 80 kV on a FEI Biotwin 12 transmission electron microscope and 25 representative images were collected. The experiment was repeated in entirety."}, "[3]": {"target": "bovine 20S proteasome (Bos taurus, UniProt Q32KL2)", "assay": "20S proteasome enzyme kinetic assay (chymotrypsin-like activity, Suc-LLVY-AMC)", "type": "biochemical", "experimental": "The chymotrypsin-like activity was assayed using the fluorogenic peptide substrates Suc-Leu-Leu-Val-Tyr-AMC (Sigma-Aldrich). […] Fluorescence was quantified as arbitrary units and progression curves were plotted for each reaction as a function of time. kobserved/[I] values were obtained using PRISM program by nonlinear least squares fit of the data to the following equation: fluorescence=vst+[(v0−vs)/kobserved][1−exp(−kobserved t)], where v0 and vs are the initial and final velocities, respectively, and kobserved is the reaction rate constant. […] Reactions were performed using inhibitor concentrations that were <100-fold of those of the proteasome assayed."}, "[4]": {"tested_on": "embryonic fibroblast cell lines MFT-6 (Vim+/+) and MFT-16 (Vim−/−)", "assay": "Apoptosis by flow cytometry (annexin V-FITC / propidium iodide)", "type": "cell-based, mouse", "details": "5 μM, 24 hours", "experimental": "Referring to FIG. 4c, embryonic fibroblast cell lines derived from vimentin-deficient mice and wild-type littermates were treated with vehicle or 5 μM WFA for 24 hours. Cells were harvested and stained with annexin V-FITC and propidium iodide and extent of apoptosis assessed by flow cytometry. The fold-apoptotis for drug over vehicle-treated samples for each cell line was plotted (n=2 experiments).\nTo assess the apoptosis activity of WFA, embryonic fibroblast vimentin-deficient cell lines (Vim^−/−; MFT-16) and wild-type (Vim^+/+; MFT-6) cells were treated with 5 μM WFA or an equivalent amount of vehicle (DMSO) for 24 hours at 37° C.-5% CO2 conditions in complete medium. Apoptotic cells were measured by using the VYBRANT™ Apoptosis Assay Kit (Molecular Probes) according to the manufacturer's instructions. Flow cytometric analysis was conducted at the University of Kentucky Core Flow Cytometry Center."}, "[5]": {"tested_on": "corneal neovascularization", "assay": "Injury-induced corneal neovascularization assay in mice", "type": "in vivo, mouse", "details": "2 mg/kg i.p. daily for 10 days", "from_the_text": "Since WFA exerts potent angiogenesis inhibitory activity in vivo, drug activity on de novo capillary growth in vimentin deficiency was investigated.\nVimentin homozygous-deficient mice (vim^−/−) and vimentin-heterozygous-deficient mice (vim^+/−) in the 129/Svev background were obtained from David Markovitz (University of Michigan Medical Center) and breeding colonies established at the University of Kentucky. All mice were housed in specific pathogen-free cages in designated lab animal housing facilities. Age-matched littermates were genotyped by polymerase chain reaction, as described, and vim^−/− and vim^+/+ mice were employed for corneal vascularization experiments. In brief, mice between 4-6 weeks of age were anesthetized by intraperiteoneal injection (i.p.) of ketamine and xylazine. Corneas were topically anesthetized by application of proparacain drop and 1 microliter drop of dilute 0.1 M sodium hydroxide was applied for 1 minute. […] Upon recovery from anesthesia, mice were replaced in cages and monitored by trained personnel for resumption of normal activity. […] Fluorescence was quantified by importing images in NIH ImageJ, as taught by Ambati, B. K. et al., Sustained inhibition of corneal neovascularization by genetic ablation of CCR5, Invest. […]"}, "[6]": {"tested_on": "vimentin in HUVECs", "assay": "Western blot of soluble vimentin in WFA-treated HUVECs", "type": "cell-based, human", "experimental": "(§1) BAECs treated with DMSO (FIGS. 3e, 3g, 3i) or 3 μM WFA (FIGS. 3f, 3h, 3j) for 18 hours were stained for vimentin using a monoclonal anti-vimentin antibody (green) and co-stained with phalloidin-rhodamine (red). The vimentin (FIGS. 3e, 3f) and phalloidin-stained images (FIGS. 3g, 3h), in fluorescence overlap, reveal the presence of numerous cytoplasmic particulate granules that co-stain for vimentin and disrupted F-actin in WFA-treated cells compared to controls (FIGS. 3i, 3j). […] FIG. 3l depicts higher concentrations and longer periods of exposure to WFA (4 hours) cause reduction in levels of the 56 kDa protein (asterisk) and increased abundance of cleavage products of vimentin (arrows).\nAs it became apparent that vimentin targeting by WFA may initiate signaling events leading to cellular apoptosis, the effect of WFA on soluble tetrameric vimentin was investigated. Using western blot analysis of soluble proteins from HUVECs treated with WFA, dose-dependent (above 2 μM) increases in vimentin cleavage products became detectable by 2 hours after drug treatment (FIGS. 3k and 3l).\nAfter treatments, cells were washed in PBS and extracts having equal amounts of proteins were subjected to SDS-PAGE on 4-20% Tris-glycine gels (BioEpress) and transferred to Immun-Blot PVDF membrane (Bio-Rad) using standard techniques. […]"}, "[7]": {"tested_on": "MCF-7 cells transfected with human vimentin cDNA", "assay": "Polyubiquitinated proteins in vimentin-transfected MCF-7 cells (anti-ubiquitin blot)", "type": "cell-based", "details": "2 μM, not in vector controls", "experimental": "Employing the widely used MCF-7 vimentin-deficient model of Bar, H. et al., Forced expression of desmin and desmin mutants in cultured cells: impact of myopathic missense mutations in the central coiled-coil domain on network formation, Exp. Cell. […] MCF-7 cells that lack endogenous IF proteins were transfected with human vimentin cDNA or a vector control and after 24 hours cells were treated with either vehicle or 2 μM WFA for 1 hour. Cell lysates were prepared and equal amounts of protein subjected to SDS-PAGE and protein blots probed with anti-ubiquitin antibody. Blots were re-probed with anti-GAPDH antibody.\nMCF-7 cells were transfected with a pCMV6-XL5 vector containing the human vimentin cDNA under CMV promoter according to vendor instructions (Origene). Control samples were transfected with an empty vector (PCMV6-XL4). Transfected cells were allowed to recover for 12 hours and subsequently treated with 2 μM WFA for 18 hours. Equal amounts of protein lysates were then subjected to western blotting and probed with mouse monoclonal antibody against ubiquitin proteins."}, "[8]": {"tested_on": "BAECs", "assay": "Immunostaining of vimentin and actin in BAECs", "type": "cell-based, bovine", "details": "3 μM, 18 hours", "experimental": "as §1\nTo further corroborate that vimentin aggregation by WFA treatment is associated with perturbation of the cytoskeleton structure, the drug effects in BAECs were investigated by immunostaining. […] Importantly, these vimentin particulates strongly co-stain for actin (compare FIG. 3h with FIG. 3j), exemplifying the role of the WFA-binding domain in control of cytoskeletal structure through the actin-binding activity of vimentin 2B domain.\nAfter treatments, BAECs were washed with PBS and fixed with 4% paraformaldehyde for 5 minutes. Cells were then permeabilized with 0.1% Triton-X in PBS for 20 minutes at 4° C. and blocked for 30 minutes in 3% BSA to prevent nonspecific binding. […]"}, "[9]": {"target": "purified hamster vimentin (Mesocricetus auratus, UniProt P02544)", "sequence (P02544 whole entry)": "as the sequence (P02544 whole entry) above", "assay": "LC-MS/MS mapping of the residue covalently modified by WFA", "type": "binding", "details": "tryptic digestion, molecular mass shift of 470", "experimental": "Next, to identify the amino acid residue(s) of vimentin covalently modified by WFA, purified hamster vimentin was incubated with WFA and the protein-ligand complexes subjected to tryptic digestion and LC-MS/MS analysis. […] A three-dimensional model of the WFA-vimentin complex was developed using x-ray crystal structures of vimentin and WFA. […] In this simulated model, the C3 and C6 carbons of WFA lie in close proximity to the cysteine residue in the vimentin A-helix (FIG. 2b), permitting a nucleophilic attack by this thiol group on the electrophilic carbon centers (FIG. 2c). Remarkably, the amino acid residues of vimentin (Gln324, Cys328 and Asp 331) that make contact with WFA (FIG. 2c) are identical from fish to mammals, as shown in the table below."}, "[10]": {"target": "T2, 56 kDa protein (vimentin) in HUVECs (Homo sapiens, UniProt P08670)", "T2 construct": "host or cells: HUVECs", "T2 sequence (P08670 whole entry)": "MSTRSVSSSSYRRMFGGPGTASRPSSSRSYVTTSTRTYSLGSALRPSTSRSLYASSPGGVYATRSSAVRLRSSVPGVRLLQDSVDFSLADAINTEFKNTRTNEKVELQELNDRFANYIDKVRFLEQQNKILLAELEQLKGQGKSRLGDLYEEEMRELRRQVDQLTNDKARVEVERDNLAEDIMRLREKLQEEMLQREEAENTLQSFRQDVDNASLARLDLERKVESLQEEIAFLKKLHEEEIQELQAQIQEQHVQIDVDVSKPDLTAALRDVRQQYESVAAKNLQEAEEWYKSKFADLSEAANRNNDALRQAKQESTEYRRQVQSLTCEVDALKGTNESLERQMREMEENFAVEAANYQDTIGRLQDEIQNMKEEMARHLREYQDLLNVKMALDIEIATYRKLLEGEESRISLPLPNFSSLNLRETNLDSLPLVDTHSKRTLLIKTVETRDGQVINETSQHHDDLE", "assay": "WFA-B labelling of proteins in HUVECs (streptavidin-HRP blot)", "type": "binding", "details": "WFA-B 2 hours, WFA-competitive", "experimental": "LC-MS/MS characterization of this protein identified the 56 kDa protein as vimentin (27% protein coverage), an IF protein that is abundant in mesenchymal cells. To further support that vimentin is bound by WFA-B in vivo, HUVECs were treated with WFA-B in the presence and absence of unconjugated WFA, and total cellular lysates were gel-fractionated and protein blots probed with streptavidin-HRP. […] This experiment was conducted using cells preincubated with DMSO or WFA for 30 minutes and subsequently with WFA-B for 2 hours. Soluble proteins extracted in 1% Triton X-100 were fractionated by SDS-PAGE and blotted. This blot, as well as those of FIGS. 1d and 1e, were developed with Streptavidin-HRP. Biotin label is incorporated in this 56 kDa protein in a WFA-competitive manner.\nAs shown in the blot of FIG. 1d, WFA-B binds vimentin in HUVECs. The blot of FIG. 1d was produced using cell cultures preincubated with DMSO (Veh) or with 5 μM WFA or 1 μM (WFA*) for 30 minutes and subsequently with 5 μM WFA-B for 2 hours."}},
  "data": [
    {"smiles": "CC1=C(CO)C(=O)O[C@@H]([C@@H](C)[C@H]2CC[C@H]3[C@@H]4[C@@H]5O[C@@H]5[C@@]5(O)CC=CC(=O)[C@]5(C)[C@H]4CC[C@]23C)C1", "note": "[12-D WS]", "values": [
      {"measurement": "in vitro binding to vimentin", "setting": "[1]", "value": "lack of in vitro binding activity"},
      {"measurement": "effect on vimentin polymerization", "setting": "[2]", "value": "does not disrupt vimentin polymerization"}
    ]},
    {"smiles": "CC1=C(CO)C(=O)O[C@@H]([C@@H](C)[C@H]2CC[C@H]3[C@@H]4C[C@H]5O[C@]56[C@@H](O)C=CC(=O)[C@]6(C)[C@H]4CC[C@]23C)C1", "note": "[WFA, Withaferin A]", "values": [
      {"measurement": "inhibition of the 20S proteasome's major catalytic function", "setting": "[3]; 10 μM", "value": "minimally inhibits"},
      {"measurement": "Kobs/[I], efficiency of inactivation", "setting": "[3]; WFA 0.5-10 μM, epoxomicin 10-75 nM", "value": "340±80", "unit": "M^−1S^−1"},
      {"measurement": "rate of apoptosis, wild-type cells versus vimentin-deficient cells", "setting": "[4]", "value": 7, "unit": "fold"},
      {"measurement": "inhibition of neovascularization", "setting": "[5]; vimentin-null mice, n=10, P=0.005", "value": 29, "unit": "%"},
      {"measurement": "inhibition of neovascularization", "setting": "[5]; wild-type mice, n=8, P=0.002", "value": 73, "unit": "%"},
      {"measurement": "effect on vimentin polymerization", "setting": "[2]", "value": "produces extensive filamentous aggregates"},
      {"measurement": "concentration giving dose-dependent increases in vimentin cleavage products", "setting": "[6]; detectable by 2 hours", "value": "above 2 μM"},
      {"measurement": "levels of polyubiquitinated proteins", "setting": "[7]", "value": "increases levels of polyubiquitinated proteins"},
      {"measurement": "vimentin filament phenotype", "setting": "[8]", "value": "condensation of vimentin filaments around the perinuclear region"},
      {"measurement": "covalent modification of cysteine residue at position 327", "setting": "[9]", "value": "uniquely modified by WFA"}
    ]},
    {"smiles": "CC1=C(COC(=O)CNC(=O)CCCCCNC(=O)CCCCCNC(=O)CCCCC2SCC3NC(=O)NC32)C(=O)OC([C@@H](C)C2CCC3C4C[C@H]5O[C@]56C(O)C=CC(=O)[C@]6(C)C4CC[C@@]32C)C1", "note": "(stereo partly drawn) [WFA-B, WFA-Gly-LC-LC-biotin]", "values": [
      {"measurement": "in vitro binding to vimentin", "setting": "[1]", "value": "bound by WFA-B in a WFA-competitive manner"},
      {"measurement": "effect on full-length vimentin isoforms (two-dimensional western blot)", "setting": "[6]; data not shown", "value": "causes several full-length (˜53-56 kDa) isoforms of vimentin to disappear"},
      {"measurement": "binding to 56 kDa protein in cells", "setting": "[10]", "value": "binds to the 56 kDa protein in HUVECs"}
    ]}
  ]
}
